Experimental data published in PMC10597649, “Effect of Astragali radix extract on pharmacokinetic behavior of dapagliflozin in healthy and type 2 diabetic rats” (Frontiers in Pharmacology, 2023).
Like-named read-outs stand apart in the source and are kept apart here.

Assays:
in vivo = details: for Cmax / MRT last / half-life / Tmax: male, Sprague-Dawley, rat, plasma, po; for MRT last: MRT(0-t)
Method: An AB SCIEX (USA) Exion LC system consisting of vacuum degasser, binary pump and auto-sampler were used for solvent and sampler delivery. Chromatographic separation was achieved using Agilent Poroshell 120 EC-C18 column (2.1 × 100 mm, 1.9 μm). The column temperature was maintained at 40°C. The mobile phase consisted of 0.1% formic acid-1mM ammonium formate-water solution (A) and acetonitrile (B) was used, and the flow rate was set at 0.3 mL/min. The gradient elution program was as follows: 0–2.0 min (90%–65% A), 2.0–6.0 min (65%–60% A), 6.0–7.0 min (60%–90% A), 7–10 min (90% A). The processed samples were stored at 4°C in an auto sampler. The sample injection volume was 2 μL. An AB SCIEX (USA) Q-TRAP 6500 model mass spectrometer (MS) equipped with a turbolon spray ionization (ESI) source was used for mass analysis and detection. DAPA and the internal standard (IS, i.e., empagliflozin) were analyzed in positive ion mode with multiple reaction monitoring (MRM) pairs: m/z 426.1–355.0 for DAPA and m/z 468.1–355.1 for IS. The ion spray voltage was set at 5500V. The curtain gas, ion source gas 1 and ion source gas 2 were set at 35, 60 and 50 psi, respectively. The source temperature was kept at 200°C. The collision gas was set at low flow rate. The declustering potential and collision energy were 35 V and 19 V for DAPA, 40 V and 21 V for IS.
The rat plasma samples (50 μL), IS working solution (5 μL), 50% methanol (5 μL), and MTBE (500 μL) were mixed, then were vortexed for 3 min and centrifuged for 5 min (4000 rpm, 4°C). The organic phase was transferred to a new centrifuged tube and evaporated to dryness with a stream of nitrogen at room temperature. The dried samples were redissolved with 100 µL of 50% methanol and vortexed for 1 min, then 2 µL of supernatant fluid was injected into the LC-MS/MS instrument for analysis.
Male Sprague Dawley (SD) rats (180–220g, 6–8 weeks old) were provided by Animal Experimentation Centre, School of Pharmacy, Fudan University (Shanghai, China). All the experimental procedures for this study were reviewed and approved by Experimental Animal Ethics Committee of School of Pharmacy, Fudan University, which was in strict compliance with the International Code for the Care and Use of Experimental Animals (approval number:2020-04-LY-MG-01). All the animals were housed under standard laboratory conditions of temperature (25°C ± 2°C), constant humidity (55 ± 5%), and light (12 h dark/light cycle), with freely available food and purified water. After 1 week of acclimation, 12 rats were randomly selected as the healthy group that was fed with the ordinary feed. The remaining 20 rats were modeled for T2DM that were fed with high-fat diet (HFD). After 4 weeks, the modeled rats fed HFD were fasted overnight, and measured fasting blood glucose (FBG), then intraperitoneally injected with STZ (35 mg/kg, inject once). One week later, the FBG was measured again, and only those rats whose FBG were over 16.7 mmol/L were considered to be T2DM rats.
Dose of 1 mg/kg for DAPA used in the study was recommended based on the package insert of DAPA and dose conversion per unit weight from humans to rats (6.3 times). ARE was administered to the rats with the dose of 300 mg/kg, which was selected by converting the recommended doses of AR for adults in practice to the doses of ARE for the rats, according to the Pharmacopoeia of the People’s Republic of China. The healthy rats and T2DM rats were randomly assigned to two groups (n = 6 each group). The CD group was the healthy rats intragastrically administered with DAPA in a single dose (1 mg/kg). The CDA group was the healthy rats intragastrically administered with ARE (300 mg/kg) once a day for seven consecutive days, and intragastrically administered with DAPA (1 mg/kg) at the same time on the seventh day. The MD group was the T2DM rats intragastrically administered with DAPA in a single dose (1 mg/kg).

P-gp = details: ref Obermeier et al., 2010; cited from earlier work
[1] = for Accuracy (RE, %): rat plasma, n = 6
Method: Stability of DAPA in rat plasma was evaluated by analyzing six replicates of QC samples at low and high concentrations under different conditions. Short-term stability was investigated by keeping the samples at room temperature (25°C) for 12 h and autosampler (4°C) for 24 h, respectively. Freeze-thaw stability was investigated by three freeze-thawing cycles, i.e., the samples were frozen for 7 d at -80°C and thawed 3 h at room temperature for each cycle. Long-term stability was investigated by keeping the samples at -80°C for 1 month.

[2] = ref Kasichayanula et al., 2013, cited from earlier work
[3] = MD group: T2DM rats, DAPA alone, single intragastric dose 1.05 mg/kg, n = 6, mean ± SD
[4] = MDA group compared to MD group (T2DM rats, with ARE versus DAPA alone)
[5] = MDA group: T2DM rats, ARE 300 mg/kg intragastric once a day for 7 days + DAPA single dose 1.05 mg/kg on day 7, n = 6, mean ± SD
[6] = MDA-H group: T2DM rats, ARE 900 mg/kg once a day for 7 days + DAPA single dose 1.05 mg/kg on day 7, n=6, mean ± SD
[7] = MDA-L group: T2DM rats, ARE 300 mg/kg once a day for 7 days + DAPA single dose 1.05 mg/kg on day 7, n=6, mean ± SD
[8] = T2DM rats compared to healthy rats, DAPA alone

CCOc1ccc(Cc2cc([C@@H]3O[C@H](CO)[C@@H](O)[C@H](O)[C@H]3O)ccc2Cl)cc1 [DAPA, Dapagliflozin]
AUC(0-inf) (in vivo; [3]): 4505.74±148.96 h*(ng/mL)
AUC(0-t) (in vivo; [3]): 4324.28±185.47 h*(ng/mL)
CL (in vivo; [3]): 233.25±7.80 (mL/h)/kg
V (in vivo; [3]): 1.49898 ± 0.30743 L/kg
decrease of C max (in vivo; [4]): 31.99%
decrease of t max (in vivo; [4]): 62.50%
increase of V (in vivo; [4]): 2.06 fold
increase of t 1/2 (in vivo; [4]): 2.18 fold
AUC(0-inf) (in vivo; [5]): 4865.13±1307.11 h*(ng/mL)
AUC(0-t) (in vivo; [5]): 4051.27±952.61 h*(ng/mL)
CL (in vivo; [5]): 228.25±56.10 (mL/h)/kg
V (in vivo; [5]): 3.09173 ± 1.18358 L/kg
AUC(0-inf) (in vivo; [6]): 4464.67±408.26 h*(ng/mL)
AUC(0-t) (in vivo; [6]): 4070.47±408.83 h*(ng/mL)
CL (in vivo; [6]): 237.88±21.93 (mL/h)/kg
V (in vivo; [6]): 2.55248 ± 0.48245 L/kg
AUC(0-inf) (in vivo; [7]): 4560.99±768.53 h*(ng/mL)
AUC(0-t) (in vivo; [7]): 3991.37±640.65 h*(ng/mL)
CL (in vivo; [7]): 235.15±35.35 (mL/h)/kg
V (in vivo; [7]): 2.91586 ± 0.51024 L/kg
decrease of t max (in vivo; [8]): 29.45%
increase of C max (in vivo; [8]): 62.94%
difference of AUC(0-t), AUC(0-inf), CL, MRT (in vivo; between the MD group and the MDA group (T2DM rats)): no significant difference
changes for t 1/2, V, AUC, CL and MRT (in vivo; healthy rats versus T2DM rats, DAPA alone): no significant changes
Cmax (in vivo; 1.05 mg/kg, C max, MD group: T2DM rats, DAPA alone, single intragastric dose 1.05 mg/kg, n = 6, mean ± SD): 627 ± 68.6 ng/mL
Cmax (in vivo; 1.05 mg/kg, Cmax, MDA-H group: T2DM rats, ARE 900 mg/kg once a day for 7 days + DAPA single dose 1.05 mg/kg on day 7, n=6, mean ± SD): 457 ± 50.4 ng/mL
Cmax (in vivo; 1.05 mg/kg, Cmax, MDA-L group: T2DM rats, ARE 300 mg/kg once a day for 7 days + DAPA single dose 1.05 mg/kg on day 7, n=6, mean ± SD): 433 ± 62.6 ng/mL
MRT last (in vivo; 1.05 mg/kg, MD group: T2DM rats, DAPA alone, single intragastric dose 1.05 mg/kg, n = 6, mean ± SD): 7.57 ± 0.32 h
MRT last (in vivo; 1.05 mg/kg, MDA-H group: T2DM rats, ARE 900 mg/kg once a day for 7 days + DAPA single dose 1.05 mg/kg on day 7, n=6, mean ± SD): 7.23 ± 0.37 h
MRT last (in vivo; 1.05 mg/kg, MDA-L group: T2DM rats, ARE 300 mg/kg once a day for 7 days + DAPA single dose 1.05 mg/kg on day 7, n=6, mean ± SD): 7.39 ± 0.34 h
half-life (in vivo; 1.05 mg/kg, t 1/2, MD group: T2DM rats, DAPA alone, single intragastric dose 1.05 mg/kg, n = 6, mean ± SD): 4.45 ± 0.9 h
half-life (in vivo; 1.05 mg/kg, t1/2, MDA-H group: T2DM rats, ARE 900 mg/kg once a day for 7 days + DAPA single dose 1.05 mg/kg on day 7, n=6, mean ± SD): 7.44 ± 0.86 h
half-life (in vivo; 1.05 mg/kg, t1/2, MDA-L group: T2DM rats, ARE 300 mg/kg once a day for 7 days + DAPA single dose 1.05 mg/kg on day 7, n=6, mean ± SD): 8.64 ± 1.08 h
Tmax (in vivo; 1.05 mg/kg, t max, MD group: T2DM rats, DAPA alone, single intragastric dose 1.05 mg/kg, n = 6, mean ± SD): 4 h
Tmax (in vivo; 1.05 mg/kg, tmax, MDA-H group: T2DM rats, ARE 900 mg/kg once a day for 7 days + DAPA single dose 1.05 mg/kg on day 7, n=6, mean ± SD): 1.45 ± 0.61 h
Tmax (in vivo; 1.05 mg/kg, tmax, MDA-L group: T2DM rats, ARE 300 mg/kg once a day for 7 days + DAPA single dose 1.05 mg/kg on day 7, n=6, mean ± SD): 1.25 ± 0.82 h
Cmax (in vivo; C max, MDA group: T2DM rats, ARE 300 mg/kg intragastric once a day for 7 days + DAPA single dose 1.05 mg/kg on day 7, n = 6, mean ± SD): 427 ± 58.9 ng/mL
MRT last (in vivo; [5]): 7.64 ± 0.7 h
half-life (in vivo; t 1/2, MDA group: T2DM rats, ARE 300 mg/kg intragastric once a day for 7 days + DAPA single dose 1.05 mg/kg on day 7, n = 6, mean ± SD): 9.69 ± 3.47 h
Tmax (in vivo; t max, MDA group: T2DM rats, ARE 300 mg/kg intragastric once a day for 7 days + DAPA single dose 1.05 mg/kg on day 7, n = 6, mean ± SD): 1.5 ± 0.77 h
P-gp substrate (P-gp): substrate of P-gp
Accuracy (RE, %) ([1]; freeze thaw (3 cycles, 7 d at -80°C, thawed 3 h at room temperature), 33.5 ng/mL): -4.72%
Accuracy (RE, %) ([1]; freeze thaw (3 cycles, 7 d at -80°C, thawed 3 h at room temperature), 975 ng/mL): -3.71%
Accuracy (RE, %) ([1]; long term (-80°C, 30d), 33.5 ng/mL): -2.96%
Accuracy (RE, %) ([1]; long term (-80°C, 30d), 975 ng/mL): -2.97%
Accuracy (RE, %) ([1]; refrigerator (4°C, 24 h), 33.5 ng/mL): -1.37%
Accuracy (RE, %) ([1]; refrigerator (4°C, 24 h), 975 ng/mL): -2.63%
Accuracy (RE, %) ([1]; room temperature (25°C, 12 h), 33.5 ng/mL): -1.19%
Accuracy (RE, %) ([1]; room temperature (25°C, 12 h), 975 ng/mL): -2.87%
Stability in the rat plasma ([1]; room temperature (25°C) for 12 h, 4°C for 24 h, -80°C for 30 days, three freeze-thaw cycles): stable
increase of C max ([2]; T2DM patients with mild renal function damage versus T2DM patient without): 4%
increase of C max ([2]; T2DM patients with moderate renal function damage versus T2DM patient without): 6%
increase of C max ([2]; T2DM patients with severe renal function damage versus T2DM patient without): 9%
